For the assay, the target named is T1, COX-1 (Sus scrofa, UniProt A0A287ANF9).
T1 construct: A platelet suspension obtained from pig's blood is preincubated with the test substance; endogenous in cells; host or cells: platelets from pig's blood
The experiment in a line: In-vitro test for COX-1 inhibition: fluorimetric quantification of malonaldehyde (MDA) in A23187-activated pig platelet suspension. It counts as cell-based. As to the method: In-vitro Test Procedure for the Determination of COX-1 Inhibition
The inhibition of the cyclooxygenase pathway is carried out by fluorimetric quantification of malonaldehyde (MA). This condenses in the acidic medium with twice the molar amount of thiobarbituric acid to give a red pigment dye, which has a fluorescence at λExcitation: 533 nm, λEmission: 550 nm.
A platelet suspension obtained from pig's blood is preincubated with the test substance for 10 min at 37° C. The concentration of the suspension should be 8×10^8 cells/ml. The arachidonic acid cascade is then activated by addition of the antibiotic calcium ionophore A23187 ([…]). After a further 10 min at 37° C., the reaction is stopped using a trichloroacetic acid solution. The samples are centrifuged and the supernatant is incubated with thiobarbituric acid for 30 min at 70° C. After cooling (30 min at room temperature), the samples are measured fluorimetrically at 533/550 nm and the IC50 values of the test compounds are determined therefrom by means of a calibration curve.

The mark [1] stands for this setting: Table 8, arylsulfonamides, pig platelets, read-out: MDA IC50.
Where [2] appears, read: Table 7, arylamides, pig platelets, read-out: MDA pIC50 (converted).
[3] abbreviates: Table 9, alkylamides, pig platelets, read-out: MDA IC50.
Where [4] appears, read: Table 9, alkylamides, pig platelets, read-out: MDA pIC50 (converted).
Setting [5] is: Table 1, carbamic acid thioesters, pig platelets, read-out: MDA pIC50 (converted).
Where [6] appears, read: Table 7, arylamides, pig platelets, read-out: MDA IC50.
[7] abbreviates: Table 10, alkylsulfonamides, pig platelets, read-out: MDA pIC50 (converted).

Like-named read-outs stand apart in the source and are kept apart here.

T1 sequence (A0A287ANF9 25-600): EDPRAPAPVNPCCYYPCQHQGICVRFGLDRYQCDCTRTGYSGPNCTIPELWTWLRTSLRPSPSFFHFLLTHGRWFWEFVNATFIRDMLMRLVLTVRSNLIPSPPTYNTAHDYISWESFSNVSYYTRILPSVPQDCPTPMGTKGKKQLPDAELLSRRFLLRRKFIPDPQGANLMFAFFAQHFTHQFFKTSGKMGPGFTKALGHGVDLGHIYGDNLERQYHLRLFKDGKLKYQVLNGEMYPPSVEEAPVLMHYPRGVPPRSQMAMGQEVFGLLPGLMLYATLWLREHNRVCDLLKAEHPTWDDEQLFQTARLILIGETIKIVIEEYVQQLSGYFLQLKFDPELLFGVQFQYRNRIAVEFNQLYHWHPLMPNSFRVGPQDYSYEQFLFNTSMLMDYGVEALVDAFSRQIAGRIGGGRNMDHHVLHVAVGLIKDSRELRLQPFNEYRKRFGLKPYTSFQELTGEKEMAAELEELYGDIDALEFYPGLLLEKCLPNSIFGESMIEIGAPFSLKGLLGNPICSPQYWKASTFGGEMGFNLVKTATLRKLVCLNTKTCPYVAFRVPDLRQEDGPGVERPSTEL

Turning to `Clc1ccc(-c2nc(SCc3ccccn3)[nH]c2-c2ccc(Cl)cc2)cc1` [Compound T83, 2-[4,5-Bis(4-chlorophenyl)-1H-imidazol-2-ylsulfanylmethyl]pyridine], the IC50 (Table 5, heteroarylmethyl sulfides, pig platelets, read-out: MDA pIC50 (converted)) was 331 nM.

In the case of `COc1ccc(-c2nc(SCCNS(=O)(=O)c3ccc(F)cc3)[nH]c2-c2ccc(OC)cc2)cc1` [Compound T20, N^1-{2-[4,5-Bis(4-methoxyphenyl)-1H-imidazol-2-ylsufanyl]ethyl}-4-fluorobenzenesulfonamide], the IC50 under setting [1] came out at 60 nM.

`COc1ccc(-c2nc(SCC(=O)Nc3ccccc3)[nH]c2-c2ccc(OC)cc2)cc1` [Compound T9, N^1-Phenyl-2-[4,5-bis(4-methoxyphenyl)-1H-imidazol-2-ylsufanyl]acetamide]: the IC50 (Table 2, sulfanylacetamides, pig platelets, read-out: MDA pIC50 (converted)) is 34.7 nM.

Turning to `COc1ccc(-c2nc(SCCNC(=O)c3ccc(C#N)cc3)[nH]c2-c2ccc(OC)cc2)cc1` [Compound T39, N^1-{2-[4,5-Bis(4-methoxyphenyl)-1H-imidazol-2ylsulfanyl]ethyl}-4-cyanobenzamide], under setting [2], the IC50 was 141 nM.

Regarding `COc1ccc(-c2nc(SCCNC(=O)CCc3ccccc3)[nH]c2-c2ccc(OC)cc2)cc1` [Compound T60, N^1-{2-[4,5-Bis(4-methoxyphenyl)-1H-imidazol-2-ylsulfanyl]ethyl}-3-phenylpropanamide], the IC50 is, setting by setting: under setting [3], 150 nM; under setting [4], 151 nM.

As for `COc1ccc(-c2nc(SC(=O)N3CCOCC3)[nH]c2-c2ccc(OC)cc2)cc1` [Compound T4, [4,5-Bis(4-methoxyphenyl)-1H-imidazol-2-yl]-morpholine-4-carbamic acid thioester], the IC50 under setting [5] was 28.2 nM.

Turning to `O=C(NCCSc1nc(-c2ccc(Cl)cc2)c(-c2ccccc2)[nH]1)c1ccccc1` [Compound T106, N^1-{2-[4-(4-Chlorophenyl)-5-phenyl-1H-imidazol-2-ylsufanyl]ethyl}benzamide], under setting [6], the IC50 stood at 900 nM.

Turning to `COc1ccc(-c2nc(SCCNC(=O)c3cc(OC)c(OC)c(OC)c3)[nH]c2-c2ccc(OC)cc2)cc1` [Compound T46, N^1-{2-[4,5-Bis(4-methoxyphenyl)-1H-imidazol-2-ylsufanyl]ethyl}-3,4,5-trimethoxybenzamide], the IC50 is 640 nM under setting [6] and 603 nM under setting [2].

On to `COc1ccc(-c2nc(SCCNC(=O)C=Cc3ccccc3)[nH]c2-c2ccc(OC)cc2)cc1` [Compound T61, N^1-{2-[4,5-Bis(4-methoxyphenyl)-1H-imidazol-2-ylsulfanyl]ethyl}-3-phenylprop-2-enamide], for which the IC50 under setting [4] is 182 nM.

With `COc1ccc(-c2nc(SCCNC(=O)c3cc(C(F)(F)F)cc(C(F)(F)F)c3)[nH]c2-c2ccc(OC)cc2)cc1` [Compound T44, N^1-{2-[4,5-Bis(4-methoxyphenyl)-1H-imidazol-2-ylsufanyl]ethyl}-3,5-bis-(trifluoromethyl)benzamide], the IC50 under setting [6] is 520 nM.

With `COc1ccc(-c2nc(SCCNS(=O)(=O)Cc3ccccc3)[nH]c2-c2ccc(OC)cc2)cc1` [Compound T66, N^1-{2-[4,5-Bis(4-methoxyphenyl)-1H-imidazol-2-ylsulfanyl]ethyl}-phenylmethanesulfonamide], the IC50 under setting [7] is 100 nM.

For the compound `CCN(CC)C(=O)Sc1nc(-c2ccc(Cl)cc2)c(-c2ccccc2)[nH]1` [Compound T104, [4-(4-Chlorophenyl)-5-phenyl-1H-imidazol-2-yl]-N,N-diethylcarbamic acid thioester], the IC50 under setting [5] is 4170 nM.

On to `COc1ccc(-c2nc(SCCNC(=O)c3cccc(Cl)c3)[nH]c2-c2ccc(OC)cc2)cc1` [Compound T33, N^1-{2-[4,5-Bis(4-methoxyphenyl)-1H-imidazol-2-ylsufanyl]ethyl}-3-chlorobenzamide], for which the “MDA pIC50” value (Table 7, arylamides, pig platelets) came out at 6.03 M. Moreover, under setting [6], the IC50 was found to be 930 nM.

As for `COc1ccc(-c2nc(SCCNC(=O)c3ccc(C(F)(F)F)cc3)[nH]c2-c2ccc(OC)cc2)cc1` [Compound T42, N^1-{2-[4,5-Bis(4-methoxyphenyl)-1H-imidazol-2-ylsufanyl]ethyl}-4-(tri-fluoromethyl)benzamide], the IC50 under setting [2] is 324 nM.

Regarding `COc1ccc(-c2nc(SCCNS(=O)(=O)c3ccc([N+](=O)[O-])cc3)[nH]c2-c2ccc(OC)cc2)cc1` [Compound T21, N^1-{2-[4,5-Bis(4-methoxyphenyl)-1H-imidazol-2-ylsufanyl]ethyl}-4-nitro-benzenesulfonamide], for the setting “Table 8, arylsulfonamides, pig platelets”, the “MDA pIC50” value was 6.96 M. Besides, the IC50 under setting [1] was 110 nM.

For `COc1ccc(-c2nc(SCCNC(=O)c3ccc(C)cc3)[nH]c2-c2ccc(OC)cc2)cc1` [Compound T47, N^1-{2-[4,5-Bis(4-methoxyphenyl)-1H-imidazol-2-ylsulfanyl]ethyl}4-methylbenzamide], under setting [2], the IC50 was 141 nM.

As to `c1ccc(-c2nc(SCc3ccccn3)[nH]c2-c2ccccc2)cc1` [Compound T91, 2-[4,5-Diphenyl-1H-imidazol-2-ylsulfanylmethyl]pyridine], the IC50 (Table 5, heteroarylmethyl sulfides, pig platelets, read-out: MDA IC50) stood at 700 nM.

For `COc1ccc(-c2nc(SCCNC(=O)c3cccc4ccccc34)[nH]c2-c2ccc(OC)cc2)cc1` [Compound T55, N^1-{2-[4,5-Bis(4-methoxyphenyl)-1H-imidazol-2-ylsulfanyl]ethyl}-1-naphthamide], the IC50 (Table 11, heteroaryl- and naphthylamides, pig platelets, read-out: MDA IC50) came out at 560 nM.

As to `COc1ccc(-c2nc(SCCNS(=O)(=O)C(C)C)[nH]c2-c2ccc(OC)cc2)cc1` [Compound T65, N^1-{2-[4,5-Bis(4-methoxyphenyl)-1H-imidazol-2-ylsulfanyl]ethyl}-propane-2-sulfonamide], under setting [7], the IC50 is 10 nM.

Take `COc1ccc(-c2nc(SCCNC(=O)C(C)(C)C)[nH]c2-c2ccc(OC)cc2)cc1` [Compound T52, N^1-{2-[4,5-Bis(4-methoxyphenyl)-1H-imidazol-2-ylsulfanyl]ethyl}-2,2-dimethylpropanamide]: the IC50 under setting [4] was 417 nM.

In the case of `CCC(=O)NCCSc1nc(-c2ccc(OC)cc2)c(-c2ccc(OC)cc2)[nH]1` [Compound T50], the IC50 under setting [3] is 47 nM.

Regarding `COc1ccc(-c2nc(SCCNC(=O)c3ccccc3[N+](=O)[O-])[nH]c2-c2ccc(OC)cc2)cc1` [Compound T41, N^1-{2-[4,5-Bis(4-methoxyphenyl)-1H-imidazol-2-ylsulfanyl]ethyl}-2-nitro-benzamide], the IC50 under setting [2] is 170 nM.

Regarding `COc1ccc(-c2nc(SCCNS(=O)(=O)c3ccc(C)cc3)[nH]c2-c2ccc(OC)cc2)cc1` [Compound T24, N^1-{2-[4,5-Bis(4-methoxyphenyl)-1H-imidazol-2-ylsufanyl]ethyl}-4-methylbenzenesulfonamide], under setting [1], the IC50 amounted to 48 nM.

`COc1ccc(-c2nc(SCCNC(=O)c3ccc(Cl)cc3)[nH]c2-c2ccc(OC)cc2)cc1` [Compound T32, N^1-{2-[4,5-Bis(4-methoxyphenyl)-1H-imidazol-2-ylsufanyl]ethyl}-4-chlorobenzamide]: the IC50 under setting [2] was 251 nM.

With `CCS(=O)(=O)NCCSc1nc(-c2ccc(OC)cc2)c(-c2ccc(OC)cc2)[nH]1` [Compound T64, N^1-{2-[4,5-Bis(4-methoxyphenyl)-1H-imidazol-2-ylsulfanyl]ethyl}-ethanesulfonamide], the IC50 under setting [7] was 38.9 nM.

For `COc1ccc(-c2nc(SCC(N)=O)[nH]c2-c2ccc(OC)cc2)cc1` [Compound T5, 2-[4,5-bis(4-methoxyphenyl)-1H-imidazol-2-ylsulfanyl]-acetamide], under “Table 2, sulfanylacetamides, pig platelets, read-out: MDA IC50”, the IC50 amounted to 450 nM.

For `CCOC(=O)CSc1nc(-c2ccc(OC)cc2)c(-c2ccc(OC)cc2)[nH]1` [Compound T79, Ethyl 2-[4,5-bis(4-methoxyphenyl)-1H-imidazol-2-ylsufanyl]acetate], the IC50 (Table 14, sulfones and their sulfide analogs, pig platelets, read-out: MDA pIC50 (converted)) was 12 nM.

For the compound `COc1ccc(-c2nc(SCCNC(=O)c3cccs3)[nH]c2-c2ccc(OC)cc2)cc1` [Compound T54, N^1-{2-[4,5-Bis(4-methoxyphenyl)-1H-imidazol-2-ylsulfanyl]ethyl}thiophene-2-carboxamide], the IC50 (Table 11, heteroaryl- and naphthylamides, pig platelets, read-out: MDA pIC50 (converted)) was 100 nM.

On to `COc1ccc(-c2nc(SCCN(C)C)[nH]c2-c2ccc(OC)cc2)cc1` [Compound T14, N,N-Dimethyl-[4,5-bis(4-methoxyphenyl)-1H-imidazol-2-ylsulfanyl]-ethanamine], for which the “MDA pIC50” value (Table 3, amines, pig platelets) stood at 5.49 M. Also, the IC50 (Table 3, amines, pig platelets, read-out: MDA IC50) turned out to be 3200 nM.

For `COc1ccc(-c2nc(SCCNC(=O)C(C)C)[nH]c2-c2ccc(OC)cc2)cc1` [Compound T51, N^1-{2-[4,5-Bis(4-methoxyphenyl)-1H-imidazol-2-ylsufanyl]ethyl}-2-methylpropanamide], the IC50 runs as follows: under setting [3], 8.8 nM; (tables 1 to 17, read-out: IC50 values (inhibition of cyclooxygenase-1)) about 1 nM.

In the case of `COc1ccc(-c2nc(SC(=O)N(C(C)C)C(C)C)[nH]c2-c2ccc(OC)cc2)cc1` [Compound T3, [4,5-Bis(4-methoxyphenyl)-1H-imidazol-2-yl]-N,N-diisopropylcarbamic acid thioester], the IC50 under setting [5] is 12 nM.

The record behind these values is patent publication US7223781B2 (Beiersdorf AG, priority 2001, dated 2007).
